Data reported in US9045505B2, “Nitric oxide donors” (University of Otago, priority 2006, dated 2015).

Assays:
[1] = tested on: liver mitochondria; test: Exposed protein thiols, glutathionylation and GSH/GSSG in liver mitochondria; type: biochemical, rat; settings: mitochondria; MitoSNAP 5 μM
Protocol: Mitochondrial incubations were usually in KCl buffer (120 mM KCl, 10 mM HEPES, 1 mM EGTA, 100 μM N,N-bis(2-bis[carboxymethyl]aminoethyl) glycine (DTPA) and 10 μM neocuproine, pH 7.2) with 10 mM succinate and 4 μg/ml rotenone in the dark at 37° C., unless stated otherwise. An electrode selective for the TPP moiety of MitoSNAP and MitoNAP was made and used as described previously (Asin-Cayuela, J., Manas, A. R., James, A. M., Smith, R. A. & Murphy, M. P. Fine-tuning the hydrophobicity of a mitochondria-targeted antioxidant. FEBS Letts. 571, 9-16 (2004)). Respiration rates were measured in a Clark type O2 electrode (Rank Brothers, UK). To measure GSH and GSSG, mitochondria (1 mg protein/ml) were incubated with 0-10 μM MitoSNO1 or MitoNAP for 10 min, pelleted by centrifugation and the GSH and GSSG contents assessed by the recycling assay (Scarlett, J. L., Packer, M. A., Porteous, C. M. & Murphy, M. P. Alterations to glutathione and nicotinamide nucleotides during the mitochondrial permeability transition induced by peroxynitrite. Biochem. Pharmacol. 52, 1047-1055 (1996)). The measurement of exposed mitochondrial protein thiols is described below.
Small molecules were removed by centrifugation through MicroBioSpin Columns (cut off=6 kDa), the eluate was clarified by centrifugation (2 min at 10,000×g) and protein thiols measured in triplicate by mixing 10 μl sample or GSH standard with 160 μl of 200 μM dithionitrobenzoic acid (DTNB) in 80 mM NaPi, 1 mM EDTA, pH 8 in a 96 well plate and absorbance at 412 nm was measured after 30 min at room temperature and the thiol content determined from the GSH standard curve. The protein concentration was measured in parallel by the bicinchonininc assay using BSA as a standard.
The interaction of MitoSNAP with mitochondrial thiol proteins is likely to initiate a dynamic process that may lead to other protein thiol modifications, such as disulfide formation, glutathionylation, sulfenylation or sulfenylamide formation, in addition to persistent S-nitrosation. To assess these, the content of reactive, solvent-exposed thiols on native liver mitochondrial proteins was measured. […] This is consistent with the finding that the maximum extent of mitochondrial protein S-nitrosation by 5 μM MitoSNAP (˜500 pmol SNO/mg protein; FIG. 11) was only ˜1% of the total number of protein thiols available. A small amount of MitoSNAP binding to mitochondrial thiol proteins through the formation of mixed disulfides was detectable by immunoblotting.

[2] = tested on: liver or heart mitochondria; test: Visualisation of S-nitrosated mitochondrial proteins by Cy3 maleimide labelling; type: biochemical, rat; settings: 10 μM MitoSNAP or 500 μM diamide, 5 min
Protocol: FIG. 11 is a series of graphs showing S-nitrosation of mitochondrial thiols by MitoSNAP. (a) Time course of S-nitrosation of mitochondrial proteins by MitoSNAP. Liver mitochondria (1 mg protein) were incubated in 1 ml KCl buffer supplemented with rotenone and succinate in the presence of 5 μM MitoSNAP. At various times mitochondria were treated with 10 mM N-ethylmaleimide (NEM), isolated by centrifugation and the S-nitrosothiol content assessed. Data are of a typical experiment showing means±range of duplicate samples for each time point, each measured in duplicate. The experiment was repeated twice. (b) S-nitrosation of mitochondrial proteins by different concentrations of MitoSNAP and SNAP. Aliquots of liver mitochondria were incubated with the indicated concentrations of MitoSNAP or SNAP for […] in the presence or absence of 500 nM FCCP and then assessed for S-nitrosothiol content as in (a). […] Data are of a typical experiment showing means±range of duplicate samples for each time point, each measured in duplicate. […] After further incubation for 5 min at 37° C. in the dark, the medium was removed and the content of S-nitrosated proteins was measured. […] S-nitrosated thiols were then selectively tagged with Cy3 maleimide and protein (10 μg) was then separated on a 12.5% SDS PAGE gel which was stained with coomassie blue and scanned for Cy3 fluorescence. […]

SMILES: CN(C)C(=O)/N=N/C(=O)N(C)C [diamide, reference compound]
- protein-glutathione mixed disulfides (glutathionylation) [1]: extensive glutathionylation
- Cy3 labelling of S-nitrosated proteins [2]: did not label proteins
